Data reported in patent US20210070748A1, “INHIBITORS OF BRUTONS TYROSINE KINASE” (Pharmacyclics LLC, priority 2015, published 2021).

How the values were obtained:
Assay type in all cases: biochemical
ITK = target: T1, ITK (Homo sapiens, UniProt Q08881); assay: Inhibition of a panel of kinases, in vitro HotSpot kinase assay: ITK; conditions: D-compounds panel data; 1 μM ATP
T1 sequence (Q08881 1-620): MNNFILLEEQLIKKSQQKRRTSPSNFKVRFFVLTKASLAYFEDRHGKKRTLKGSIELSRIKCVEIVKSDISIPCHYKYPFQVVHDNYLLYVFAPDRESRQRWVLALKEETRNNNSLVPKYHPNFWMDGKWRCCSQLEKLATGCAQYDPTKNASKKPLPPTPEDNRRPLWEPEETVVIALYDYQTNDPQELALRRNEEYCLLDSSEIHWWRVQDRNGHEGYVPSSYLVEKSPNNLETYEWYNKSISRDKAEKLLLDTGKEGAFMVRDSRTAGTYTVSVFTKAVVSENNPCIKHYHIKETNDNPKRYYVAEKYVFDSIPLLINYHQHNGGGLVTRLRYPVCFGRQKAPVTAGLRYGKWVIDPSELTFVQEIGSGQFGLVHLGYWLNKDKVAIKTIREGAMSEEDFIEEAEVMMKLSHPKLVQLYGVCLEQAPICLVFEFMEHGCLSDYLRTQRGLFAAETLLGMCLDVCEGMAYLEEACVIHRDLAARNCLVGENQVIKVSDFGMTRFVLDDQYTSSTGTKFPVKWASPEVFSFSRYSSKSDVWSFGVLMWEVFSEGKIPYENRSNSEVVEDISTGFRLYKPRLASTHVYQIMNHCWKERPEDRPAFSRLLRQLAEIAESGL
Experimental: (§1) The degree of inhibition of a panel of kinases is determined using the in vitro HotSpot kinase assay (purified enzymes, ^33P-ATP, an appropriate substrate and 1 μM ATP).

JAK3 = target: T2, JAK3 (Homo sapiens, UniProt P52333); assay: Inhibition of a panel of kinases, in vitro HotSpot kinase assay: JAK3; conditions: D-compounds panel data; 1 μM ATP; read-out: IC50 JAK3
T2 sequence (P52333 1-1124): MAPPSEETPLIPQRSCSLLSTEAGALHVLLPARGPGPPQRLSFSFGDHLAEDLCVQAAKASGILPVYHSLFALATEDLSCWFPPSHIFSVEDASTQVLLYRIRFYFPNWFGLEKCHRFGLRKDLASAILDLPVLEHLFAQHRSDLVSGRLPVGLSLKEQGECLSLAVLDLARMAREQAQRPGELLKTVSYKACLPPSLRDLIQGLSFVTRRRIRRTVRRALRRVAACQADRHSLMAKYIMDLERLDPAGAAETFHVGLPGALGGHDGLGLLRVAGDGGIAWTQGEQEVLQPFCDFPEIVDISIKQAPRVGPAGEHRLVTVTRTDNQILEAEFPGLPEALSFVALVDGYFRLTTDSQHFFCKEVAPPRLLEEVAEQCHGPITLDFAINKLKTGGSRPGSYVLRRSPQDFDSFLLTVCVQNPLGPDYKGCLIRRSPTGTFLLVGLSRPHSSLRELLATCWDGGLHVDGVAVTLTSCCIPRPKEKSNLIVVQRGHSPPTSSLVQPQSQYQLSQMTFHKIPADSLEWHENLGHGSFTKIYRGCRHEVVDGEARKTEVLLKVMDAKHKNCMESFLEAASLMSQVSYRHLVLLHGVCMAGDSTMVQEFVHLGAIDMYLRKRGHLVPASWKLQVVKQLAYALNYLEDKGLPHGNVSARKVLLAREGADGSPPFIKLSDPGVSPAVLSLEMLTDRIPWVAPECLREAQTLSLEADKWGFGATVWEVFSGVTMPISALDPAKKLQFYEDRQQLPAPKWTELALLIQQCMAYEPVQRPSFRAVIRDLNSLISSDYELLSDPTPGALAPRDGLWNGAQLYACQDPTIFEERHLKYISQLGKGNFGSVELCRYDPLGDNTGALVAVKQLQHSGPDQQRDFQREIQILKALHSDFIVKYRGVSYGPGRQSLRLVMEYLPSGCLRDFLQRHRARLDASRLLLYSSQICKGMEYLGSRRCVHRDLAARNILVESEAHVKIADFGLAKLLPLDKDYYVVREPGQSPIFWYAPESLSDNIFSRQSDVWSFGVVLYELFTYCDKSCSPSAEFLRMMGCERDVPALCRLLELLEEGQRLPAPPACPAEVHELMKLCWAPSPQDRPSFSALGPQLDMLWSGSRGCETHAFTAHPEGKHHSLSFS

EGFR = EGFR (Homo sapiens, UniProt P00533); assay: Inhibition of a panel of kinases, in vitro HotSpot kinase assay: EGFR; conditions: D-compounds panel data; 1 μM ATP
Experimental: as §1

LCK = LCK (Homo sapiens, UniProt P06239); assay: Inhibition of a panel of kinases, in vitro HotSpot kinase assay: LCK; conditions: D-compounds panel data; 1 μM ATP; read-out: IC50 LCK
SRC = SRC (Homo sapiens, UniProt P12931); assay: Inhibition of a panel of kinases, in vitro HotSpot kinase assay: SRC; conditions: D-compounds panel data; 1 μM ATP
Experimental: as §1

EGFR, sequence (P00533 25-1210): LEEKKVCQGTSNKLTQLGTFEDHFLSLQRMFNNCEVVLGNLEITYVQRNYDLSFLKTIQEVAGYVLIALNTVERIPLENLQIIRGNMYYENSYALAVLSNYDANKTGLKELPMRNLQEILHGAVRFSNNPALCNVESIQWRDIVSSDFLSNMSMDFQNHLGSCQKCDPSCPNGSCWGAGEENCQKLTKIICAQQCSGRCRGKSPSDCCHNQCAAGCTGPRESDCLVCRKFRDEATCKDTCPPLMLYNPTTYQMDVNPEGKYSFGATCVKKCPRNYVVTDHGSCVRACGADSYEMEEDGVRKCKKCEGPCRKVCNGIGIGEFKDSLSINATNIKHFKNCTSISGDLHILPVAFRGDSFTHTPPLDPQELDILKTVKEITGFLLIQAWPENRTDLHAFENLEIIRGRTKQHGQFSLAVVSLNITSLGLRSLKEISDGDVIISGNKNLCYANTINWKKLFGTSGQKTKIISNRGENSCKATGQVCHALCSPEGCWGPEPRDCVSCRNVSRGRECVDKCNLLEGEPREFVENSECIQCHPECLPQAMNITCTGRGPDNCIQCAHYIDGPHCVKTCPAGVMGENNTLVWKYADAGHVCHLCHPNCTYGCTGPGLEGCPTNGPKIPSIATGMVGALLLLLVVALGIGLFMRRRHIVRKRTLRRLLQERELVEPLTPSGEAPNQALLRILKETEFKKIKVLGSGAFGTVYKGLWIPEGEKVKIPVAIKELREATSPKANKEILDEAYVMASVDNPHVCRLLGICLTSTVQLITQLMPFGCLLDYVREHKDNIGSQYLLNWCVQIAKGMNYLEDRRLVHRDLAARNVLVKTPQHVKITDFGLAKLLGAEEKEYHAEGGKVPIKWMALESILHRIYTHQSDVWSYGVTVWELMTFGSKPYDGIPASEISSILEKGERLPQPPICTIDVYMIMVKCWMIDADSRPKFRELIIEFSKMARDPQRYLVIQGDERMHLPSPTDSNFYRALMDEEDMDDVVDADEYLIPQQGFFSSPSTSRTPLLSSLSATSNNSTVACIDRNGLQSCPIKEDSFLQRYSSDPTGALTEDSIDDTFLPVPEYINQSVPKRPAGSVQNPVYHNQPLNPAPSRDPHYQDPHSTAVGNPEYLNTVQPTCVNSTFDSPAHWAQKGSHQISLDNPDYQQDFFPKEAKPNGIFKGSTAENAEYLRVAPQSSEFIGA
LCK, sequence (P06239 whole entry): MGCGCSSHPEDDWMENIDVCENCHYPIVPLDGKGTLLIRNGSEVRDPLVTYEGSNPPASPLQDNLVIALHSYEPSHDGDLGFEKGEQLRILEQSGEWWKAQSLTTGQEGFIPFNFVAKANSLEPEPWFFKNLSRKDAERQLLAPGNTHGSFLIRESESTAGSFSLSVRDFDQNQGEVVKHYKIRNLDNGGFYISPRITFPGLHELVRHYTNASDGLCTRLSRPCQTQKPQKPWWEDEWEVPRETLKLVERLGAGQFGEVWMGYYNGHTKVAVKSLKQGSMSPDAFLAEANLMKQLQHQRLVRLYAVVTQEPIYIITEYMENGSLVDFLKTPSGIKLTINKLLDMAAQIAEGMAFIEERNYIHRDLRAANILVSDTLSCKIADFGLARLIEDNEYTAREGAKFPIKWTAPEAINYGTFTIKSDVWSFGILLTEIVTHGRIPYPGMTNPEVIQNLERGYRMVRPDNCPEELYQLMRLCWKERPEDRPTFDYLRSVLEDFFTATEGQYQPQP
SRC, sequence (P12931 whole entry): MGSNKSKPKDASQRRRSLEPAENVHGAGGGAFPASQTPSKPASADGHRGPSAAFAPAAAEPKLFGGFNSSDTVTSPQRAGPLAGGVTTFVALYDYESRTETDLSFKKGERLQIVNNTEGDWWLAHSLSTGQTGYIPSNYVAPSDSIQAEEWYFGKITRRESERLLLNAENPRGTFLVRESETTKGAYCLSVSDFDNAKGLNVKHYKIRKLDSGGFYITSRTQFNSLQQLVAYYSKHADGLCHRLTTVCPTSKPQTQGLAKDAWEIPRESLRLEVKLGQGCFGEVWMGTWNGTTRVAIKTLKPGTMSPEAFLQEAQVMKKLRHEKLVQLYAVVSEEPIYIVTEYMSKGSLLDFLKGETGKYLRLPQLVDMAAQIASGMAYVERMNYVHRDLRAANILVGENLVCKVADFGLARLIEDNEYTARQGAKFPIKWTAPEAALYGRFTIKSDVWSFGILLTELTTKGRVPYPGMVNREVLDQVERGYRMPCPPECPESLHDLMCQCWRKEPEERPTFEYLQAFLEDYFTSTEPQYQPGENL

SMILES	IC50 (ITK) [µM]	IC50 (JAK3) [µM]	IC50 (EGFR) [µM]	IC50 (LCK) [µM]	IC50 (SRC) [µM]
C[C@@H]1[C@H](NC(=O)N(C)C)CCCN1c1cnc(C(N)=O)c(Nc2cc(C3CCOCC3)ns2)n1 [Example D-162, 5-[(2R,3R)-3-[(dimethylcarbamoyl)amino]-2-methylpiperidin-1-yl]-3-{[3-(oxan-4-yl)-1,2-thiazol-5-yl]amino}pyrazine-2-carboxamide]	0.1 to 1	1 to 10	0.1 to 1	0.01 to 0.1	0.01 to 0.1
C[C@@H]1[C@H](NC(=O)N(C)C)CCCN1c1cnc(C(N)=O)c(Nc2cc(C3CCN(C4CCCC4)CC3)ns2)n1 [Example D-163, 3-{[3-(1-cyclopentylpiperidin-4-yl)-1,2-thiazol-5-yl]amino}-5-[(2R,3R)-3-[(dimethylcarbamoyl)amino]-2-methylpiperidin-1-yl]pyrazine-2-carboxamide]	0.01 to 0.1	0.1 to 1	0.1 to 1	< 0.01	≤ 0.01
Cc1cc(Nc2nc(N3CCCC(c4ncc(-c5ccccc5)[nH]4)C3)cnc2C(N)=O)sn1 [Example D-164, 3-[(3-methyl-1,2-thiazol-5-yl)amino]-5-[3-(4-phenyl-3H-imidazol-2-yl)piperidin-1-yl]pyrazine-2-carboxamide]	1 to 10	0.1 to 1	0.1 to 1	0.1 to 1	0.1 to 1
CN1CCN(c2ccc(Nc3nc(N4CCC[C@@H](n5ccc6cc(C7CC7)ccc6c5=O)C4)cnc3C(N)=O)cc2)CC1 [Example D-165, 5-[(3R)-3-(6-cyclopropyl-1-oxo-1,2-dihydroisoquinolin-2-yl)piperidin-1-yl]-3-{[4-(4-methylpiperazin-1-yl)phenyl]amino}pyrazine-2-carboxamide]	0.1 to 1	1 to 10	> 10	0.1 to 1	0.1 to 1
CN1CCN(Cc2ccc(Nc3nc(N4CCC[C@@H](n5ccc6cc(C7CC7)ccc6c5=O)C4)cnc3C(N)=O)cc2)CC1 [Example D-167, 5-[(3R)-3-(6-cyclopropyl-1-oxo-1,2-dihydroisoquinolin-2-yl)piperidin-1-yl]-3-({4-[(4-methylpiperazin-1-yl)methyl]phenyl}amino)pyrazine-2-carboxamide]	0.1 to 1	0.1 to 1	1 to 10	0.1 to 1	0.1 to 1

Further lines, results first:

IC50 (ITK) [µM]	IC50 (JAK3) [µM]	IC50 (EGFR) [µM]	IC50 (LCK) [µM]	IC50 (SRC) [µM]	SMILES
> 10	> 10	> 10	> 10	> 10	Cc1cc(Nc2nc(N3CCC[C@@H](n4ccc5cc(C6CC6)ccc5c4=O)C3)cnc2C(N)=O)sn1 [Example D-166, 5-[(3R)-3-(6-cyclopropyl-1-oxo-1,2-dihydroisoquinolin-2-yl)piperidin-1-yl]-3-[(3-methyl-1,2-thiazol-5-yl)amino]pyrazine-2-carboxamide]
> 10	> 10	> 10	> 10	> 10	NC(=O)c1ncc(N2CCC[C@@H](n3ccc4cc(C5CC5)ccc4c3=O)C2)nc1Nc1ccc2ncccc2c1 [Example D-168, 5-[(3R)-3-(6-cyclopropyl-1-oxo-1,2-dihydroisoquinolin-2-yl)piperidin-1-yl]-3-[(quinolin-6-yl)amino]pyrazine-2-carboxamide]
